Measurements: patent US20220280644A1, “"TRPswitch" - A STEP FUNCTION CHEMO-OPTOGENETIC LIGAND” (UNIVERSITY OF UTAH RESEARCH FOUNDATION, priority 2019, published 2022)

Columns and labels:
[1] = Photostationary state (PSS) determination; format: physicochemical; conditions: for 365 nm PSS / 420 nm PSS / 495 nm PSS: estimated, UV/Vis spectroscopy in DMSO
Source text: […] In the latter case, the pure Z isomer spectrum was estimated using methods described in previous publications.

[2] = test system: wild-type zebrafish larvae; assay: Behavioral assay: light-induced motion response of wild-type larvae; format: in vivo, Zebrafish (Danio rerio); conditions: for light-induced motion response (in vivo activity): 3 dpf wild-type larvae, 1 s flashes WL1-WL4
Protocol: A total of 1,000 compounds were selected from the ChemBridge Corp. catalog. Compounds were dissolved in DMSO at a stock concentration of 1 μg/μL (˜1.5 mM). The library was screened at a 1:100 dilution in E3 solution for a final concentration of ˜15 μM. Negative controls were treated with an equal volume of DMSO. Groups of 3 larvae at 3 days post fertilization (dpf) were distributed into the wells of 96-well clear bottom black microplates (07-200-567; Fisher Scientific) in 150 μL E3 before the addition of small molecules. Stock solutions of compounds were added directly to zebrafish in the wells of a 96 well plate (Corning 3631), mixed, and allowed to incubate for 1 h in the dark at 28.5° C. prior to behavioral evaluation in the behavioral assay. Ordering information: 1 (5533696; ChemBridge); 3 (5538408; ChemBridge).
Larvae in each of the wells were exposed to four 1 second flashes of light stimulus in the following order: 450-500 nm (WL1), 415-455 nm (WL2), 352-402 nm (WL3), white light (WL4), with a 5 second inter-stimulus interval. Digital video recording was performed for 5 seconds before the first light stimuli and continued throughout the stimulation sequence. Band pass filters (Semrock FF02-475/50, FF02-435/40, FF01-377/50) were used to restrict the excitation light to the indicated wavelengths. […] 290 frames of digital video were recorded per well at 10 FPS using an EMCCD camera (C9100; Hamamatsu) mounted on an inverted compound microscope (AxioObserver A1; Zeiss) with a NA 0.03 1.25× objective and a barrier with a 0.7 mm diameter opening to restrict light scattering to the sample. MetaMorph software (Molecular Devices) was used to control the execution of TTL signals and camera capture using the built-in stream acquisition with trigger function. Each video was saved for review. Light stimuli were generated with an ozone free 300-Watt xenon bulb housed in a Lambda LS illuminator (Sutter Instruments). A dichroic mirror (T510LPXRXT; Chroma) was used for appropriate excitation of samples and bright field acquisition. Schott longpass absorption glass (RG610; Chroma) was added in the transmitted light path to reduce unwanted excitation to the well and to provide sufficient light for video recording. All behavioral experiments were conducted at room temperature. […]
To analyze digital video recordings, custom MetaMorph software scripts were used to automatically threshold the video to identify the area of larvae in each frame. Threshold images of the frames after each light activation event were overlaid to calculate a new combined threshold area. The motion index was calculated as the percentage change between the threshold area in the frame right before light activation and the new combined threshold area. This motion index correlates with the overall amount of motion in the well.

[3] = Z→E thermal isomerisation kinetics; format: physicochemical
Protocol: In order to determine the Z→E thermal isomerisation kinetics in DMSO-d6 a ˜20 mM solution of the relevant compound was irradiated using a Luzchem LZC-4V photoreactor fitted with 12×8 W LZC-420 lamps (420 nm peak emission) until no further change was observable by ^1H NMR. For 30% water:DMSO samples, a 15 μM solution of the relevant compound was irradiated in a quartz cuvette using 365 nm LEDs (3×800 mW Nichia NCSU276A) until no further change was observed by UV-Vis spectroscopy. Compounds (˜25 μM solutions in DMSO) were treated analogously. In the case of compounds studied by NMR, the change in Z-isomer percentage was followed as a function of time through integration of the relevant peaks. […]
For data collected via ^1H NMR, the natural log of the Z isomer concentration was plotted against time to yield a straight line implying first order kinetics. The gradient of this line was used to determine the rate constant for Z→E conversion from which the thermal half-life could be calculated:
For data collected via UV-Vis Spectroscopy, absorbance data at a fixed wavelength was fitted using the following, first order equation: […]
where k represents the rate constant; A∞, A0 and At are the absorbances of the pure E-state, Z-rich state, and time t, respectively. […]

[4] = UV-Vis absorbance, E/Z isomerization with violet and green light; format: physicochemical; conditions: UV-Vis absorbance in DMSO
Protocol: Compounds were dissolved in DMSO at 250 μM and 260 μM for TRPswitch-A and TRPswitch-B, respectively and UV-Vis absorbance was measured using a NanoDrop 1000 (Thermo Scientific).

[5] = Aqueous solubility observation; format: physicochemical
endogenous human TRPA1 = target: T1, endogenous human TRPA1 (Homo sapiens, UniProt O75762); assay: Whole cell current in untransfected CCD-18Co cells; format: cell-based; conditions: untransfected CCD-18Co
T1 construct: human colonic fibroblast cells, CCD-18Co, which express human TRPA1 endogenously; endogenous in cells; host or cells: CCD-18Co (ATCC), untransfected
Protocol: Immortalized HEK293T cells or human colonic fibroblast cells (CCD-18Co; ATCC) were used. HEK293T cells were plated on […] cover slips and transiently transfected with 10 μg of Trpa1b plasmid (pCMV-zTrpa1b-FLAG) (SEQ ID NO:3) and 5 μg of mNeonGreen cDNA (Allele Biotechnology), then grown in a 6 cm plate for 24-48 h. CCD-18Co were cultured in Eagle's minimal essential medium with 10% FBS, 1× penicillin and streptomycin. CCD-18Co cells were plated on 12 mm cover slips and transiently transfected with 5 μg of zTrpa1b plasmid (pCMV-zTrpa1b-FLAG) together with 5 μg of mNeonGreen cDNA (Allele Biotechnology), then grown in a […] plate for 48-72 h. After this time, the cover slips were transferred to a recording chamber containing an extracellular solution composed of 145 mM sodium gluconate, 4 mM KCl, 3 mM MgCl2, 10 mM D-glucose, 10 mM HEPES; pH 7.4 adjusted with NaOH. The internal solution contained 122 mM cesium methane sulfonate, 1.8 mM MgCl2, 9 mM EGTA, 14 mM creatine phosphate (sodium salt), 4 mM Mg-ATP, 0.3 mM Na-GTP, 10 mM HEPES, pH 7.2 adjusted with CsOH. […] Whole cell currents were measured on an Axopatch 200B amplifier (Molecular De-vices) under the control of pClamp software. […] Basal Trpa1b whole cell currents were measured with a ramp protocol (˜100 to +100 mV, at a holding potential of 0 mV). […] The p values were calculated using a two-tailed, paired Student's t-test.

zebrafish Trpa1b = assay: Whole-cell patch-clamp of HEK293T cells expressing zebrafish Trpa1b; format: cell-based
Protocol: Immortalized HEK293T cells or human colonic fibroblast cells (CCD-18Co; ATCC) were used. HEK293T cells were plated on […] cover slips and transiently transfected with 10 μg of Trpa1b plasmid (pCMV-zTrpa1b-FLAG) (SEQ ID NO:3) and 5 μg of mNeonGreen cDNA (Allele Biotechnology), then grown in a 6 cm plate for 24-48 h. CCD-18Co were cultured in Eagle's minimal essential medium with 10% FBS, 1× penicillin and streptomycin. CCD-18Co cells were plated on 12 mm cover slips and transiently transfected with 5 μg of zTrpa1b plasmid (pCMV-zTrpa1b-FLAG) together with 5 μg of mNeonGreen cDNA (Allele Biotechnology), then grown in a […] plate for 48-72 h. After this time, the cover slips were transferred to a recording chamber containing an extracellular solution composed of 145 mM sodium gluconate, 4 mM KCl, 3 mM MgCl2, 10 mM D-glucose, 10 mM HEPES; pH 7.4 adjusted with NaOH. The internal solution contained 122 mM cesium methane sulfonate, 1.8 mM MgCl2, 9 mM EGTA, 14 mM creatine phosphate (sodium salt), 4 mM Mg-ATP, 0.3 mM Na-GTP, 10 mM HEPES, pH 7.2 adjusted with CsOH. Borosilicate glass pipettes with a resistance of 3-5 MO were used. Whole cell currents were measured on an Axopatch 200B amplifier (Molecular De-vices) under the control of pClamp software. Signals were digitized through a Digidata1550B interface (Molecular Devices). Currents were filtered at 5 kHz (lowpass, Bessel) and sampled at 10 kHz prior to analysis with Clampfit software (Molecular Devices). All the plots and statistical tests were performed on Excel (Microsoft corp.). Basal Trpa1b whole cell currents were measured with a ramp protocol (˜100 to +100 mV, at a holding potential of 0 mV). Photoactive compounds were perfused into the recording chamber and a fluorescent light generated by mercury vapor short arc (U-HGLGPS, OLYMPUS) filtered through an ET-ECFP 434/17 nm filter and through a ET-mCherry 560 nm filter (Chroma Technology) was switched “on” and “off” for 10 s. All experiments were performed at room temperature. The p values were calculated using a two-tailed, paired Student's t-test.

Trpa1b = assay: Heartbeat interruption in larvae expressing Trpa1b in cardiomyocytes; format: in vivo, zebrafish; conditions: 20 μM
Protocol: Heartbeat interruption experiments were performed in vivo on 2 dpf Tg(cm/c2:Trpa1b-2A-EGFP) larvae in a Trpa1b^−/− background. Larvae were pretreated with 20 μM of TRPswitch-A or TRPswitch-B in E3 at a final concentration of 1% DMSO for 1 h in the dark at 28.5° C. before experimental manipulation. Immediately prior to the onset of experiments, E3 solution was replaced with 0.2 mg/mL tricaine (Sigma, A5040) in E3 for anesthetizing the larvae. Violet light (352-402 nm) and green light (500-600 nm) were used for E to Z and Z to E isomerization, respectively. Violet and green light excitation were achieved using a band pass filter FF01-377/50 and an et500lp long pass barrier filter, respectively, together with a t600plxxr dichroic mirror and a 300-Watt xenon bulb light source (Sutter Instrument). Experiments were performed using a NA 0.6 40× air objective at room temperature. The zebrafish heart in the whole field of view was illuminated with 1 s violet light followed by various lengths of green light as indicated. Ventricle width measurement was performed using the ImageJ ‘measure’ function on the widest outer ventricle width every 100 ms.

[6] = UV-Vis spectroscopy in 30% water:DMSO, extrapolated pure Z spectrum, listed as TRPswitch-A

T1 sequence (O75762 whole entry): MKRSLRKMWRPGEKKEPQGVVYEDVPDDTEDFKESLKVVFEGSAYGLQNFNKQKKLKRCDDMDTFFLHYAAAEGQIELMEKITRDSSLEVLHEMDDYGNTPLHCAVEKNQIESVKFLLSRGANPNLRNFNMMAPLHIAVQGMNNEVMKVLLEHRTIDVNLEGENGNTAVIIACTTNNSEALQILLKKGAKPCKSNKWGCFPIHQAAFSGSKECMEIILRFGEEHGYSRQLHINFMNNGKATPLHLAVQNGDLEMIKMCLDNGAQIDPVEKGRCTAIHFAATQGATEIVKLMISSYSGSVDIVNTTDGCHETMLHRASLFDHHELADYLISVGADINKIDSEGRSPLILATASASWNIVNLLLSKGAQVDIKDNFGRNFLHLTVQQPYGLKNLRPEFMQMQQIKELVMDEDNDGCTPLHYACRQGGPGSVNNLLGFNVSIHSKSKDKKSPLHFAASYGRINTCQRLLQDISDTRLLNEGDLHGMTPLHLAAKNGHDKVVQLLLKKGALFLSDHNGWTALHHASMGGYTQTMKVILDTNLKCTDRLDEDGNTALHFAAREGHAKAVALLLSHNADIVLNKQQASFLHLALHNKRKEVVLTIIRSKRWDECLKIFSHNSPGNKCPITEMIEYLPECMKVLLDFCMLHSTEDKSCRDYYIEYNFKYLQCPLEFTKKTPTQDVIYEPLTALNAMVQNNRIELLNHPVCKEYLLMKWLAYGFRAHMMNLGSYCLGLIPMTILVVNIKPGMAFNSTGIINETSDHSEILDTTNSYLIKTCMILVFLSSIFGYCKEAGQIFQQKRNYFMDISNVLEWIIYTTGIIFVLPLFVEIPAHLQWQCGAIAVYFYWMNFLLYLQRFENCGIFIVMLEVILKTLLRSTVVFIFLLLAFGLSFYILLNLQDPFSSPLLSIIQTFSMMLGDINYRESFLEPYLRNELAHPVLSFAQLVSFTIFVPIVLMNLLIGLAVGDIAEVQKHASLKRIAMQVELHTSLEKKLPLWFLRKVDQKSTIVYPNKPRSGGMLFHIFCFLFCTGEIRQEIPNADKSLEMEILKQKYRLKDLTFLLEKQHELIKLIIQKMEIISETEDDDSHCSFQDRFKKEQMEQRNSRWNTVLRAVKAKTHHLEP

Row | SMILES | 365 nm PSS [1] [% E] | 420 nm PSS [1] [% E] | 495 nm PSS [1] [% E] | light-induced motion response (in vivo activity) [2] | also measured
1 | O=C(Nc1ccccc1/N=N/c1ccccc1)c1ccco1 [Compound 2, (E)-N-(2-(phenyldiazenyl)phenyl)furan-2-carboxamide] | 13 | 56 | 79 | reduced activity | –
2 | Cc1nn(C)c(C)c1/N=N/c1ccc(NC(=O)c2ccco2)cc1NC(=O)c1ccco1 [Compound 8, (E)-N,N′-(4-((1,3,5-trimethyl-1H-pyrazol-4-yl)diazenyl)-1,3-phenylene)bis(furan-2-carboxamide)] | – | – | – | – | thermal half-lives [3]: long thermal half-lives; E/Z photoswitching with violet and green light [4]: quantitative photoswitching in both directions; aqueous solubility [5]: some aqueous solubility issues
3 | O=C(Nc1ccc(/N=N/c2ccc([N+](=O)[O-])cc2)c(NC(=O)c2cccs2)c1)c1cccs1 [Compound 7, (E)-N,N′-(4-((4-nitrophenyl)diazenyl)-1,3-phenylene)bis(thiophene-2-carboxamide)] | 69 | 46 | 70 | far less active | –
4 | N#Cc1ccc(/N=N/c2ccc(NC(=O)c3cccs3)cc2NC(=O)c2cccs2)cc1 [Compound 5, (E)-N,N′-(4-((4-cyanophenyl)diazenyl)-1,3-phenylene)bis(thiophene-2-carboxamide)] | 41 | 30 | 61 | far less active | –
5 | C=CCN=C=S [AITC, allyl isothiocyanate, reference compound] | – | – | – | – | response of human TRPA1 current (endogenous human TRPA1): responded; agonist-activated Trpa1b currents (zebrafish Trpa1b; positive control): activated currents
6 | O=C(Nc1ccc(/N=N/c2ccccc2)c(NC(=O)c2ccco2)c1)c1ccco1 [Compound 1, (E)-N,N′-(4-(phenyldiazenyl)-1,3-phenylene)bis(furan-2-carboxamide)] | – | – | – | light-induced motion response across multiple wavelengths | 365 nm PSS (E-Z) ([1]; 1H NMR in DMSO-d6): 79% Z; 420 nm PSS (E-Z) ([1]; 1H NMR in DMSO-d6): 53% Z; 495 nm PSS (Z-E) ([1]; 1H NMR in DMSO-d6): 71% E; Estimated 365 nm PSS (E-Z) [1, 6]: 86% Z; Estimated 495 nm PSS (Z-E) [1, 6]: 73% E; E/Z photoswitching with violet and green light [4]: incomplete; bandwidth with the most activity ([2]; light-induced motion response): 415-455 nm; Trpa1b current upon violet light stimulation (zebrafish Trpa1b; 10 μM, compared to baseline): high amplitude currents; Trpa1b photocurrent upon subsequent green light stimulation (zebrafish Trpa1b; 10 μM, same cell): recovered to its baseline current magnitude; current density fold increment after subsequent pulse of green light (zebrafish Trpa1b; +100 mV): 1.15±0.17 fold; current density fold increment upon violet light illumination (zebrafish Trpa1b; +100 mV): 2.36±0.50 fold; current density fold increment after subsequent pulse of green light (zebrafish Trpa1b; −100 mV): 3.71±1.31 fold; current density fold increment upon violet light illumination (zebrafish Trpa1b; −100 mV): 4.35±1.44 fold; ventricle heartbeat after 1 s violet light (Trpa1b; 1 h pre-incubation): could be stopped; ventricular rhythm after 1 s green light (Trpa1b; after violet light): re-stored
7 | O=C(Nc1ccc(/N=N/c2ccccc2)c(NC(=O)c2cccs2)c1)c1cccs1 [Compound 3, (E)-N,N′-(4-(phenyldiazenyl)-1,3-phenylene)bis(thiophene-2-carboxamide)] | 22 | 38 | 76 | slightly lower photoresponse | –

The next lines start with results.

Row | 365 nm PSS [1] [% E] | 420 nm PSS [1] [% E] | 495 nm PSS [1] [% E] | SMILES | light-induced motion response (in vivo activity) [2] | also measured
8 | 66 | 42 | 64 | O=C(Nc1ccc(/N=N/c2ccc([N+](=O)[O-])cc2)c(NC(=O)c2ccco2)c1)c1ccco1 [Compound 6, (E)-N,N′-(4-((4-nitrophenyl)diazenyl)-1,3-phenylene)bis(furan-2-carboxamide)] | far less active | –
9 | 47 | 32 | 61 | N#Cc1ccc(/N=N/c2ccc(NC(=O)c3ccco3)cc2NC(=O)c2ccco2)cc1 [Compound 4, (E)-N,N′-(4-((4-cyanophenyl)diazenyl)-1,3-phenylene)bis(furan-2-carboxamide)] | far less active | –
